Assay results from the NIST ThermoML archive (doi:10.1021/je900525f).

Test: xn = mol fraction of the nth substance listed
Settings: 101 kPa, Liquid; for viscosity: Capillary tube (Ostwald / Ubbelohde) method; for speed of sound: Pulse-echo method

N#CCc1ccccc1 [benzeneacetonitrile] + CCOC(C)=O
Settings | mass density, 303.15 K [kg/m3] | mass density, 308.15 K [kg/m3] | mass density, 313.15 K [kg/m3] | speed of sound, 303.15 K [m/s] | speed of sound, 308.15 K [m/s] | speed of sound, 313.15 K [m/s] | viscosity, 303.15 K [mPa·s] | viscosity, 308.15 K [mPa·s] | viscosity, 313.15 K [mPa·s]
x1 = 0.0198 | 892.4 | 887.4 | 880.8 | 1125.1 | 1109.3 | 1104.3 | 0.396 | 0.376 | 0.357
x1 = 0.1279 | 910.4 | 905.4 | 899.6 | 1173.8 | 1164.8 | 1159.7 | 0.483 | 0.458 | 0.431
x1 = 0.2425 | 926.8 | 922.7 | 916.9 | 1230.8 | 1218.2 | 1209.3 | 0.591 | 0.556 | 0.524
x1 = 0.3589 | 942.3 | 938 | 933.4 | 1286.7 | 1278.4 | 1263.6 | 0.714 | 0.668 | 0.627
x1 = 0.461 | 955.3 | 950.9 | 946.5 | 1326.1 | 1312.5 | 1303.1 | 0.839 | 0.781 | 0.733
x1 = 0.5665 | 967.5 | 963.3 | 958.5 | 1366.7 | 1355.1 | 1344.9 | 0.984 | 0.914 | 0.856
x1 = 0.6978 | 981.5 | 978.1 | 972.4 | 1417.8 | 1410.8 | 1400 | 1.18 | 1.092 | 1.017
x1 = 0.8328 | 994.9 | 991.8 | 985.2 | 1464.3 | 1461.3 | 1446.8 | 1.416 | 1.307 | 1.209
x1 = 0.9745 | 1006.5 | 1002.6 | 998.1 | 1508.3 | 1500.5 | 1490 | 1.695 | 1.554 | 1.43
x1 = 1 | 1008.8 | 1004.1 | 999.5 | 1519.2 | 1512.9 | 1503.4 | 1.761 | 1.602 | 1.489
